Assays:
rat aortic ring = assay: Rat aortic ring assay; settings: 100 μM 7-mer, 5 days
Protocol: Thoracic aortas were removed from euthanized 10-week-old male Sprague Dawley rats and gently stripped of periaortic fibroadipose tissue. Aortas were sectioned into ~ 1 mm length rings, being manipulated in Medium 200. Matrigel (120 μl) mixed with 24 μl LSGS, 72 μl medium, 200 ng/ml VEGF and 100 μM 7-mer was used to embed the aortic ring and then polymerized in 12-well plates (37 °C for 30 min). Subsequently, 1 ml culture medium supplemented with 100 units/ml penicillin, and […] was added. The cultures were propagated at 37 °C in a humidified incubator for up to 5 days. Sprouts were recorded using an inverted microscope platform (Leica DMI6000B) with bright-field optics. Each ring was scored by three independent observers on a scale 0–3, depending on the degree of vessel sprouting observed (0 = no sprouting, 3 = profuse sprouting).
(§1) Fig. 6 The effect of the 7-mer on VEGF-induced microvessel sprouting of aortic ring and corneal neovascularization. a Rat aortic ring assay. Photomicrographs of aortic ring explants after treatment for 5 days (magnification × 40). Sprouting was evaluated on a scale from 0 (no sprouts) to 3 (profuse sprouting). There was no sprouting of vessels from ex vivo aortic rings embedded in Matrigel without LSGS or VEGF. b The 7-mer inhibits VEGF-induced corneal angiogenesis in C57BL/6 mice. […]

[1] = tested on: p53, Bax, p21, cleaved caspase-3; assay: Western blot of p53, Bax, p21 and cleaved caspase-3 in RPMI8226 cells; type: cell-based, human
From the text: Cell lysis and SDS–PAGE were as described previously. Antibodies used in this study were for active p38 MAPK and active JNK (Promega, Madison, WI), p38 MAPK/SAPK2, JNK (Upstate Biotechnology, Lake Placid, NY), p53 (Chemicon, Temecula, CA), bax, p21, cleaved caspase-3 and β-actin (Abcam Ltd., Cambridge, UK). Proteins of interest were detected using the appropriate IgG-horseradish peroxidase-linked secondary antibody (Santa Cruz Biotechnology) and enhanced chemiluminescence reagent (Amersham, Arlington Heights, IL). X-ray films were scanned on a model GS-700 Imaging Densitometer (Bio-Rad, Hercules, CA) and analyzed with Labworks 4.0 software. For quantification, blots from at least three independent experiments were used.
Fig. 4 The 7-mer induces JNK signaling to trigger p53/bax/p21^Waf1 expression in RPMI8226 cells. a and b Cell treatments were as described in Fig. 3. Cell lysates were then prepared for western blot analysis of p53, Bax, and p21. Representative blots and densitometric analyses from three independent experiments are shown. ^*P < 0.001 versus 7-mer-treated cells

[2] = tested on: VEGF-induced corneal neovascularization; assay: Mouse corneal micropocket assay; type: in vivo; settings: C57BL/6 mice, pellet with 200 ng VEGF + 2.5 μg 7-mer, day 7
Protocol: The assay was performed according to procedures described previously. Briefly, corneal micropockets were created in 6-week-old C57BL/6 mice with the needle of 1-ml injector. A micropellet of sucrose aluminum sulfate and hydron polymer containing 200 ng VEGF, with or without 2.5 μg 7-mer peptide, was delivered into each corneal pocket. Eyes were photographed by a slit-lamp biomicroscope on day 7 after micropellet implantation. Ingrowth of the blood vessels into the avascular cornea, towards the pellet, was scored as a positive response. The results are reported as the fraction of positive corneas of the total implanted.
as §1, with “mice. Representative corneas and final scoring determining the number of positive corneas per total implantations.” for “mice.”

[3] = 7-mer for 8 h, VEGF-treated RPMI8226 cells, densitometry, three independent experiments

7-mer: PEDF Asp64-Ser70, N-acetylated, C-amidated (Ac-DLYRVRS-NH2; UniProt P36955 64-70, looked up, fragment)
VEGF-induced outgrowth of sprouts from aortic rings (rat aortic ring; 200 ng/ml VEGF, P = 0.001): this outgrowth was suppressed
sprouts of aortic rings exposed to LSGS and VEGF (rat aortic ring; LSGS + 200 ng/ml VEGF): blocked by the 7-mer
Bax protein level compared to solvent control [1, 3]: 4.5 ± 0.40 fold
p21Waf1 protein level compared to solvent control [1, 3]: 5.5 ± 0.43 fold
p53 protein level compared to solvent control [1, 3]: 3.6 ± 0.39 fold
cleaved/active caspase-3 ([1]; 7-mer treatment for 24 h): elevation of cleaved/active caspase-3
VEGF-induced neovessels in the corneas [2]: prevented by the 7-mer
Positive Corneas /Total ([2]; vehicle 10/12): 0/8

Reference: article PMC8864869, “A short peptide derived from pigment epithelial-derived factor exhibits an angioinhibitory effect” (BMC Ophthalmology, 2022)
